We go through three compounds from patent US8580918B2, “Peptidic GLP-2 agonists” (Ferring B.V., priority 2009, dated 2013).

Where two headings read alike, the source gives them in different places. Where no end group is shown, it is not given here.

The conditions of data set [1]: in humans; cited from earlier work.
Data set [2] can be described thus: Pharmacokinetics in rats after intravenous bolus injection (systemic clearance). It is filed as in vivo. As to conditions: rat, adult male Sprague-Dawley rats, i.v. bolus, read-out: CL (ml/kg/min) Average. The gist of the method: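 Systemic clearance from noncompartmental analysis as dose per kg over trapezoidal AUC extrapolated to infinity, mean and SD across animals. Plasma (K2EDTA) levels by LC/MS/MS after single IV jugular-vein bolus, 0.1-1.0 mg/kg, in 3-4 cannulated male Sprague-Dawley rats.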

On to `CC[C@H](C)[C@H](NC(=O)[C@H](Cc1ccccc1)NC(=O)[C@H](CC(=O)O)NC(=O)[C@H](CCCN=C(N)N)NC(=O)[C@H](C)NC(=O)[C@H](C)NC(=O)[C@H](CC(C)C)NC(=O)[C@H](CC(N)=O)NC(=O)[C@H](CC(=O)O)NC(=O)[C@H](CC(C)C)NC(=O)[C@@H](NC(=O)[C@@H](NC(=O)[C@H](CC(N)=O)NC(=O)[C@H](CCSC)NC(=O)[C@H](CCC(=O)O)NC(=O)[C@H](CC(=O)O)NC(=O)[C@H](CO)NC(=O)[C@H](Cc1ccccc1)NC(=O)[C@H](CO)NC(=O)CNC(=O)[C@H](CC(=O)O)NC(=O)[C@H](C)NC(=O)[C@@H](N)Cc1cnc[nH]1)[C@@H](C)O)[C@@H](C)CC)C(=O)N[C@@H](CC(N)=O)C(=O)N[C@@H](Cc1c[nH]c2ccccc12)C(=O)N[C@@H](CC(C)C)C(=O)N[C@H](C(=O)N[C@@H](CCC(N)=O)C(=O)N[C@H](C(=O)N[C@@H](CCCCN)C(=O)N[C@H](C(=O)N[C@H](C(=O)N[C@@H](CC(=O)O)C(=O)O)[C@@H](C)O)[C@@H](C)CC)[C@@H](C)O)[C@@H](C)CC` [hGLP-2, reference compound], for which the “half-life (t1/2)” value in data set [1] is 10 min. For the same compound, in data set [2] (plasma, dose 1.0 mg FB/kg), the clearance turned out to be 24.6 mL/kg/min.

In the case of “HGEGSFSSELSTILDALAARDFIAWLIATKITDKKKKKK-NH2 (C-terminus assumed) [ZP-1846, reference compound]”, the clearance in data set [2] (in vivo, dose 0.20 mg FB/kg) is 2.8 mL/kg/min.

With “HGEGTFSSELATILDALAARDFIAWLIATKITDKKKKKK-NH2 [ZP-1848, reference compound]”, in data set [2] (plasma, 0.2 mg FB/kg, dose 0.20 mg FB/kg), the clearance amounted to 2.4 mL/kg/min.
